The data set in a line: Assay (IV) determination of solubility. Particulars: for solubility at 18 h: pH 5.0. It is filed as physicochemical. How it is done: Assay (IV)—Determination of Solubility
The mimylin peptide was dissolved in water at ˜500 nmol/ml and mixed 1:1 with a series of buffers (100 mM glycylglycine pH 3.0, 100 mM glycylglycine pH 4.0, 100 mM glycylglycine pH 5.0, 100 mM bistrispropane pH 6.0, 100 mM bistrispropane pH 6.5, 100 mM bistrispropane pH 7.0, 100 mM bistrispropane pH 7.5, 100 mM bistrispropane pH 8.0).

A word on the solubility: it is the concentration that dissolves in the medium under given conditions. A high value points to much dissolved substance.

SMILES strings stand for the structures. Values after ≈ are worked out from the molar mass of the structure shown. Numbered stars: 1 amine (or outer) side, 2 acyl side, 3 side chain; on linkers, the order of the positions; unused ones are H or OH. Peptide text beside a SMILES is read from it. * marks the point of attachment. C20 diacid = O=C(O)CCCCCCCCCCCCCCCCCCC(=O)*; γGlu = O=C(O)[C@H](CCC(=O)[*:2])N[*:1]

For the compound `CC(C)C[C@H](NC(=O)[C@H](C)NC(=O)[C@H](C)NC(=O)[C@@H](NC(=O)[C@H](CO)NC(=O)[C@H](CC(C)C)NC(=O)[C@H](CCC(=O)O)NC(=O)[C@H](CO)NC(=O)[C@H](C)NC(=O)CC[C@H](NC(=O)CCCCCCCCCCCCCCCCCCC(=O)O)C(=O)O)[C@@H](C)O)C(=O)NCC(=O)N[C@@H](CCCNC(=N)N)C(=O)N[C@@H](CC(C)C)C(=O)N[C@@H](CO)C(=O)N[C@@H](C)C(=O)N[C@@H](CCC(=O)O)C(=O)N[C@@H](CC(C)C)C(=O)N[C@@H](Cc1cnc[nH]1)C(=O)N[C@@H](CCC(=O)O)C(=O)N[C@@H](CC(C)C)C(=O)N[C@@H](CO)C(=O)N[C@H](C(=O)N[C@@H](Cc1ccc(O)cc1)C(=O)N1CCC[C@H]1C(=O)N[C@@H](CCCNC(=N)N)C(=O)N[C@H](C(=O)N[C@@H](CCC(=O)O)C(=O)N[C@H](C(=O)NCC(=O)N[C@@H](CO)C(=O)NCC(=O)N[C@@H](CO)C(=O)N[C@@H](Cc1ccc(O)cc1)C(N)=O)[C@@H](C)O)[C@@H](C)O)[C@@H](C)O` [compound 97, [N-terminal(C20 diacid-gGlu), des1, 21S, 23Y, 30S, 31G, 33Y]mimylin] ({C20 diacid-γGlu}-ASELSTAALGRLSAELHELSTYPRTETGSGSY-NH2), the solubility at 18 h was found to be 40 µM (≈ 152 µg/mL). For the same compound, under “pH 3.0”, the Solubility result was “≧200 μM”. Moreover, the Solubility entry (pH 4.0) is given as “≧200 μM”. Also, the Solubility entry (pH 6.0) was “≧200 μM”. Also, the Solubility result (pH 6.5) is “≧200 μM”. In addition, the Solubility entry (pH 7.0) was “≧200 μM”. The Solubility entry (pH 7.5) was “≧200 μM”. Also, for the setting “pH 8.0”, the Solubility entry is given as “≧200 μM”.

In the case of `CC(C)C[C@H](NC(=O)[C@H](C)NC(=O)[C@H](C)NC(=O)[C@@H](NC(=O)[C@H](CO)NC(=O)[C@H](CC(C)C)NC(=O)[C@H](CCC(=O)O)NC(=O)[C@H](CO)NC(=O)[C@H](C)NC(=O)CC[C@H](NC(=O)CCCCCCCCCCCCCCCCCCC(=O)O)C(=O)O)[C@@H](C)O)C(=O)NCC(=O)N[C@@H](CCCNC(=N)N)C(=O)N[C@@H](CC(C)C)C(=O)N[C@@H](CO)C(=O)N[C@@H](C)C(=O)N[C@@H](CCC(=O)O)C(=O)N[C@@H](CC(C)C)C(=O)N[C@@H](Cc1cnc[nH]1)C(=O)N[C@@H](CCC(=O)O)C(=O)N[C@@H](CC(C)C)C(=O)N[C@@H](C)C(=O)N[C@H](C(=O)N[C@@H](Cc1ccc(O)cc1)C(=O)N1CCC[C@H]1C(=O)N[C@@H](CCCNC(=N)N)C(=O)N[C@H](C(=O)N[C@@H](CCC(=O)O)C(=O)N[C@H](C(=O)NCC(=O)N[C@@H](CO)C(=O)NCC(=O)N[C@@H](CO)C(=O)N[C@@H](Cc1ccc(O)cc1)C(N)=O)[C@@H](C)O)[C@@H](C)O)[C@@H](C)O` [compound 80, [N-terminal(C20 diacid-gGlu), des1, 23Y, 30S, 31G, 33Y]mimylin] ({C20 diacid-γGlu}-ASELSTAALGRLSAELHELATYPRTETGSGSY-NH2), the solubility at 18 h worked out at 10 µM (≈ 37.9 µg/mL). Further, the Solubility entry (pH 3.0) is reported as “≧200 μM”. Besides, the Solubility result (pH 4.0) is “≧200 μM”. Besides, under “pH 6.0”, the Solubility entry is “≧200 μM”. The Solubility entry (pH 6.5) is on record as “≧200 μM”. Also, the Solubility result (pH 7.0) is listed as “≧200 μM”. Besides, where the note is “pH 7.5”, the Solubility result is given as “≧200 μM”. For the setting “pH 8.0”, the Solubility entry is “≧200 μM”.

These data come from patent publication US9593149B2, “Amylin and calcitonin receptor agonist” (Novo Nordisk A/S, priority 2014, dated 2017).
